Converted amounts (≈) assume the structure as drawn. Starred links: 1 amine or outer side, 2 acyl side, 3 side chain; linkers in the order of their positions; H or OH if unused. Non-standard residues stand in square brackets, D forms with d. Residues, ends and D or L forms follow the SMILES beside them. Groups on a side chain read outwards from the residue. *: point of attachment. γGlu = O=C(O)[C@H](CCC(=O)[*:2])N[*:1]; αMeF = C[C@](N)(Cc1ccccc1)C(=O)O; αMeK = C[C@](N)(CCCCN)C(=O)O; Lauroyl = CCCCCCCCCCCC(=O)*; αMeS = C[C@](N)(CO)C(=O)O; AEEA = NCCOCCOCC(=O)O; Aib = CC(C)(N)C(=O)O

One series concerns the target GLP-1 receptor (Homo sapiens, UniProt P43220). Description: cAMP assay, primary assay as described in WO 2016/198544. Type of series: cell-based. Conditions: in vitro potency at the GLP-1 receptor. An excerpt:
The biological activity of a GLP-1 peptide analog can be evaluated, for example, by assessing the ability of the peptide to activate a receptor (e.g., a GLP-1 receptor). Peptide activation of such receptors results in downstream accumulation of cAMP second messenger which can be measured in a functional activity assay.
For orientation: Cyclic AMP is a second messenger, typically raised through Gs and lowered through Gi signalling.

The next series can be described thus: physchem. An excerpt:
A known amount of the permeation enhancer, the peptide, or both were combined with increasing amounts of buffer until the permeation enhancer and/or the peptide were completely solubilized.

Chain of GLP-1 receptor (P43220 24-463): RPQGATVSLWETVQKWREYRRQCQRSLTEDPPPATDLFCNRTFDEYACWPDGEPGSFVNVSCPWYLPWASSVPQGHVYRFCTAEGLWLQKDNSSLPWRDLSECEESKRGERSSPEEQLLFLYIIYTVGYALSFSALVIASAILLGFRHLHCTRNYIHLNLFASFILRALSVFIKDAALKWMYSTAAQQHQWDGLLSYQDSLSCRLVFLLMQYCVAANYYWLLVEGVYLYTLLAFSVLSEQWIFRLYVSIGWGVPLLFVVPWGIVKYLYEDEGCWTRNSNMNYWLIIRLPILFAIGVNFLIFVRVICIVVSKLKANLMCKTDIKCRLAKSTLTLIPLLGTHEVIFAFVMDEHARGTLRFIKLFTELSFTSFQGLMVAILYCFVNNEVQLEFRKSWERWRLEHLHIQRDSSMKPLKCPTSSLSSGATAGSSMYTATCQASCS

With `CCCCCCCCCCCC(=O)N[C@@H](CCC(=O)NCCOCCOCC(=O)NCCOCCOCC(=O)NCCCC[C@H](NC(=O)[C@H](C)NC(=O)[C@@H](NC(=O)[C@](C)(Cc1ccccc1)NC(=O)[C@H](CCC(=O)O)NC(=O)[C@](C)(CCCCN)NC(=O)[C@H](C)NC(=O)[C@H](C)NC(=O)[C@H](CCC(=O)O)NC(=O)CNC(=O)[C@H](CCC(=O)O)NC(=O)[C@H](CC(C)C)NC(=O)[C@H](CCCCNC(=O)COCCOCCNC(=O)COCCOCCNC(=O)CC[C@H](NC(=O)CCCCCCCCCCC)C(=O)O)NC(=O)[C@H](CO)NC(=O)[C@](C)(CO)NC(=O)[C@@H](NC(=O)[C@H](CC(=O)O)NC(=O)[C@H](CO)NC(=O)[C@@H](NC(=O)[C@](C)(Cc1ccccc1)NC(=O)[C@H](CO)NC(=O)CNC(=O)[C@H](CCC(=O)O)NC(=O)C(C)(C)NC(=O)[C@@H](N)Cc1c[nH]cn1)[C@@H](C)O)C(C)C)[C@@H](C)CC)C(=O)N[C@H](C(=O)N[C@H](C(=O)N[C@@H](CCC(=O)O)C(=O)NCC(=O)NCC(N)=O)C(C)C)C(C)C)C(=O)O` [MEDI7219, Free-H-[AIB]-EGS-[αMePhe]-TSDV-[αMeSer]-SK[(PEG2)2-γE-Lauroyl]-LEGEAA-[αMeLys]-E-[αMePhe]-IAK[(PEG2)2-γE-Lauroyl]-VVEGG-amide] (H-H[Aib]EGS[αMeF]TSDV[αMeS]SK([AEEA-AEEA-γGlu-Lauroyl])LEGEAA[αMeK]E[αMeF]IAK([AEEA-AEEA-γGlu-Lauroyl])VVEGG-NH2), the EC50 – broadly, the concentration giving half of the maximal effect – at GLP-1 receptor is about 3.9 pM. Moreover, the solubility (commonly how much of the substance goes into solution per volume) was under 10 mg/mL in “physchem” (pH 5, aqueous buffer, thermodynamic from solid); under 10 mg/mL in “physchem” (pH 5.5); 75 mg/mL (≈ 17.2 mM) in “physchem” (pH 6, aqueous buffer, thermodynamic from solid); 150 mg/mL (≈ 34.5 mM) in the series “physchem” (pH 7); 180 mg/mL (≈ 41.4 mM) in “physchem” (pH 7.5); 200 mg/mL (≈ 45.9 mM) in the series “physchem” (pH 8). This compound showed a solubility in “physchem” (pH 9) of over 200 mg/mL. Besides, in “physchem” (pH 7.5), the “solubility as a function of pH (in words)” value is “increased in the range of pH 7.0 to 9.0”.

For the origin of these results see patent publication US11173124B2, “Oral delivery of GLP-1 peptide analogs” (MEDIMMUNE LIMITED, priority 2017, dated 2021).
